According to article PMC5063506, “A Novel Class of Small Molecule Agonists with Preference for Human over Mouse TLR4 Activation” (PLoS ONE, 2016):
Each block holds one compound with its values, some of them ahead of it.

Legend:
mouse splenocytes = assay: Cytokine induction in mouse splenocytes (mouse MILLIPLEX); assay type: cell-based, BALB/c mouse; conditions: 1 and 0.2 μg/ml, 24 h
Experimental: Splenocytes were isolated from naïve BALB/c mice by dissociating spleens with a GentleMACS (Miltenyi) instrument, then filtration through […] screens. For other species, blood was obtained through venipuncture or cardiac puncture into heparinized tubes, then diluted 1:1 with PBS or HBSS and layered onto Ficoll-Histopaque (GE Healthcare) for blood from healthy human volunteers and cynomolgus macaques, Lympholyte-Mammal (Cedarlane Labs) for New Zealand white rabbits, Sprague-Dawley rats, Hartley guinea pigs, cotton rats, and ferrets, followed by standard density centrifugation techniques. […]
PBMCs (human, cynomolgus macaque, guinea pig, ferret, rabbit, rat, and cotton rat) or splenocytes (mouse) were seeded onto 96-well flat bottom plates at 5 x 10^5 cells/well and stimulated with TLR4 agonists at 1 and 0.2 μg/ml for 24 h at 37°C. […] For human, cyno, mouse, and rat, cell-free SNs were analyzed via human, NHP, mouse, and rat MILLIPLEX kits. For GP, ferret, rabbit, and CR, cells were lysed by Millipore lysing buffer and snap frozen at -70 C until ready for analysis by Affymetrix QuantiGene 2.0 Plex kits. […] Signal was detected using a Bioplex 200 instrument (BioRad). […]
Fig 6 The Ugi compound-induced cytokine profile is similar to MPL and LPS in human PBMCs but not mouse splenocytes. […] SNs were analyzed via human and mouse MILLIPLEX kits. […]

[1] = LogD, octanol/water distribution coefficient; assay type: physicochemical; conditions: pH 7.4; octanol/water distribution coefficient at pH7.4
Excerpt: (§1) Fig 2 Optimization stages of Ugi products as TLR4 agonists. *Human TLR-4 NFκB SEAP reporter assays; protocol as described in Methods. Data are reported as pEC50, or negative log of the EC50 values. **Clint rh / hm represents intrinsic clearance in presence of rat hepatocytes (μL/min/10^6 cells) and human microsomes (μL/min/mg protein). […] Thus a drug molecule with LogD >4 might be considered to be very lipophilic and therefore more likely to suffer from rapid metabolic turnover, poor solubility and receptor promiscuity; whereas a LogD range of 1–3 is more likely to be associated with optimal physicochemical and drug-like properties. ^††Solubility was measured by dissolution of solid samples in buffer at pH 7.4.

cytochrome P450 enzymes = assay: Inhibition of cytochrome P450 enzymes (unpublished data); assay type: in vitro ADME; conditions: compared with earlier-stage, more lipophilic Ugi compounds
[2] = Intrinsic clearance in presence of rat hepatocytes; assay type: in vitro ADME; conditions: read-out: Clint rh (intrinsic clearance, rat hepatocytes)
Excerpt: as §1

hTLR4/MD2 KIKO mice = assay: In vivo serum cytokines in hTLR4/MD2 KIKO mice; parameters: species or system mouse; conditions: 50 μg IP, serum at 2 h and 6 h
Excerpt: (§2) The humanized TLR4/MD-2 mice, described in detail in [15], express human TLR4 and human MD-2 from bacterial artificial chromosome transgenes that were bred to the mouse TLR4/MD-2 double-knockout (DKO) on a C57BL/6J background. Because the hMD-2 BAC transgene is integrated on the Y-chromosome, only male mice were used in the study. Generally, hMD-2 BAC+ males are bred to hTLR4 BAC+ females (both on DKO background) and male pups were screened for the presence of hTLR4 BAC. Double positives served as the fully humanized TLR4/MD-2 mice and hTLR4 BAC negative mice served as functional KO. Wild-type C57BL/6 mice were bred in parallel. All breeding was performed in an SPF facility at the University of Washington and all protocols were approved by the University of Washington IACUC. For in vivo cytokines, mice were injected intraperitoneally with 50 μg of either AZ618 or MPL in 0.2 ml PBS. Mice were bled from the retroorbital sinus 2 h after injection and terminal cardiocentesis was performed at 6 h for the second blood sample. Serum samples were analyzed via MILLIPLEX kits (EMD Millipore).
(§3) C57BL/6 mice (6–12 per group) were immunized IP with 50 μg MPL or AZ618 and then were bled at 2 h via retro-orbital route and at 6 h via cardiac puncture. Serum was analyzed by multiplex Millipore kits for cytokine content. […]

wild-type C57BL/6 mice = assay: In vivo serum cytokines in wild-type C57BL/6 mice; parameters: species or system mouse; conditions: 50 μg IP, serum at 2 h (IL-12 p40, IL-6) and 6 h (IL-12 p40, MIG, RANTES)
Excerpt: as §2, §3

logD [1]: > 4.5
Compound: CC(C)(C)c1ccc(N(C(=O)c2cc(-c3ccccc3)n(-c3ccccc3)n2)C(C(=O)NC2CCCC2)c2ccc(CC(=O)O)cc2)cc1 (centres unmarked) [AZ902]
reactivity of mouse splenocytes (cytokine secretion) (mouse splenocytes): marginal activation

inhibition of one or more cytochrome P450 enzymes (cytochrome P450 enzymes): abolished
logD [1]: 2.85
hepatocyte CLint [2]: < 5 µL/min/1e6 cells
Compound: O=C(O)Cc1ccc(C(C(=O)NC2CCCC2)N(C(=O)c2cc(-c3ccccc3)n(-c3ccccc3)n2)c2ccc3c(c2)CCC3)cc1 (centres unmarked) [AZ617]

Compound: Cc1cc(C)cc(N(C(=O)c2cc(-c3ccccc3)n(-c3ccccc3)n2)C(C(=O)NC2CCCC2)c2ccc(CC(=O)O)cc2)c1 (centres unmarked) [AZ618, 2-(4-(2-(cyclopentylamino)-1-(N-(3,5-dimethylphenyl)-1,5-diphenyl-1H-pyrazole-3-carboxamido)-2-oxoethyl)phenyl)acetic acid]
serum cytokine induction in hTLR4/MD2 KIKO mice (hTLR4/MD2 KIKO mice): induced a very similar pattern of cytokines
serum cytokine induction in wild-type C57BL/6 mice (wild-type C57BL/6 mice): not AZ618 induced

logD [1]: 3.2
Compound: Cc1ccc(N(C(=O)c2cc(-c3ccccc3)n(-c3ccccc3)n2)C(C(=O)NC2CCCC2)c2ccc(CC(=O)O)cc2)cc1Cl (centres unmarked) [AZ161]
